# According to the METLIN SMRT retention time set (Domingo-Almenara et al. 2019):
# Test: gradient 5% acetonitrile 3 min, to 50% in 2 min, to 85% in 15 min, held 3 min, 100 µL/min
# Details: column: Zorbax Extend-C18 2.1 x 50 mm; eluents: water / acetonitrile, 0.1% formic acid
# Method in brief: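 The mobile phases were water and acetonitrile, each with 0.1% formic acid, pumped at 100 μL/min through a Zorbax Extend-C18 column (2.1 × 50 mm, 1.8 μm). Pure standards were injected as mixtures of ~100 molecules and detected by a quadrupole time-of-flight mass spectrometer in positive and negative ionization mode. Retention time came from computationally picked adduct peaks, each inspected by hand.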
row,SMILES,RP-LC retention time [s]
1,COC(=O)c1c(C(=O)OC)c2c3ccccc3ccn2c1C(=O)OC,916
2,CCOc1ccc(NC(=O)Cn2cnc3nc(N4CCC(C(=O)NC5CC5)CC4)sc3c2=O)cc1,675
3,CC(C(=O)N1CCC(N2CCCCC2)CC1)C1CCN(S(=O)(=O)c2ccc(Cl)s2)CC1 (stereo not drawn),681
4,O=C(Nc1nccn(-c2ccc(F)c(Cl)c2)c1=O)c1ccc2c(c1)OCO2,802
5,CCCN1CCN(C(=O)C2CCN(S(=O)(=O)c3ccc4c(c3)NC(=O)CO4)CC2)CC1,586
6,CN(CC1CCOCC1)C(=O)c1ccsc1,643
7,Cc1ccc(CNCc2ccc3c(c2)n(C)c(=O)n3C)cc1,619
8,Cc1cccc(-c2noc(Cn3ccn(-c4cc(C)cc(C)c4)c(=O)c3=O)n2)c1,925
9,Cn1nc(C(=O)N2CCOCC2)c2c1CCN(C(=O)Nc1ccc(Br)cc1F)C2,713
10,COc1ccc2c(c1)OC1(C)CC2C(S(=O)(=O)c2ccc(C)c(C)c2)C(=O)N1C (stereo not drawn),1030
11,CCOc1ccc(C(=O)Nc2cc(-c3cn4cccnc4n3)ccc2OC)cc1,723
12,Cc1cccc(NC(=O)Nc2nccn(-c3ccc(C(C)C)cc3)c2=O)c1,1190
13,Cc1ccc(-c2nc(-c3cccc(-c4ccn[nH]4)c3)no2)c(C)c1,1150
14,c1coc(-c2nc3ccccc3c3nnc(SCc4cn5ccccc5n4)n23)c1,867
15,CC(C)N1CCN(S(=O)(=O)c2cc(-c3nnc(C4CCCC4)o3)co2)CC1,641
16,CCCN1C(=O)c2c(C(=O)NCc3cccc(F)c3)ncn2CC1(C)C(=O)NCCC(C)C (stereo not drawn),843
17,CCOC(=O)CCNC(=O)N1CCC(CC2CC2)(NS(C)(=O)=O)CC1,672
18,CCOC(=O)COC(=O)c1cn(-c2ccc(C)cc2)c(=O)c2ccccc12,718
19,Cc1nn(C)cc1S(=O)(=O)Nc1nc2ccc(S(C)(=O)=O)cc2s1,581

row,SMILES,RP-LC retention time [s]
1,CC(C)Cc1csc(-c2csc(S(=O)(=O)NCc3ccc(F)cc3)c2)n1,1160
2,O=C(NC1CC1)C1CCN(c2cncnc2N2CCCCC2)CC1,607
3,Cc1cnc(C(=O)N2CCC(F)(F)C(COCC3CC3)C2)cn1 (stereo not drawn),794
4,COc1ccc(OCC(=O)N2CCCN(c3cc(=O)n(C(C)C)c(=O)n3C(C)C)CC2)cc1,834
5,Cc1ccc(OCc2nnc(SCC(=O)Nc3nc(-c4ccccc4)c(C)s3)o2)cc1,1090
6,CCOc1ccc(S(=O)(=O)N2CCc3c(c(-c4nnc(-c5ccc(F)cc5)o4)nn3C)C2)cc1,1000
7,CCOc1ccc(-c2noc(Cn3nc4ccc(-c5ccc(C)cc5)nn4c3=O)n2)cc1OC,966
8,CCCCNC(=O)C1CCCN(C(=O)Nc2ccc(S(=O)(=O)N(CC)CC)s2)C1 (stereo not drawn),849
9,O=C1C2N=NN(c3ccccc3)C2C(=O)N1c1ccccc1 (stereo not drawn),907
10,COc1cc(NC(=O)N2CCC(CN3CC(C)CC(C)C3)CC2)cc(OC)c1OC (stereo not drawn),625
11,CCOC(=O)N1CCN(C(=O)CSc2ncnc3c2cnn3-c2ccc(F)cc2)CC1,849
12,COc1ccc(Br)c(-c2nnc(C)o2)c1,797
13,C[C@@H]1C/C=C/C=C/C=C/C=C/[C@H](O[C@@H]2O[C@H](C)[C@@H](O)[C@H](N)[C@@H]2O)C[C@@H]2O[C@](O)(C[C@@H](O)C[C@H]3O[C@@H]3/C=C/C(=O)O1)C[C@H](O)[C@H]2C(=O)O,686
14,COCC(=O)Nc1cc2c(cc1N(C)C)n(C)c(=O)c(=O)n2C,606
15,Cc1ccc(-n2c(=O)c3c(cc(C)n3C)n(CC(=O)Nc3ccc4c(c3)OCO4)c2=O)cc1,819
16,CCc1nnc2c(=O)n(CC(=O)NCc3cccc(F)c3)c3cccnc3n12,710
17,CCOc1ccc(-n2nnc(-c3nc(-c4ccccc4OC)cs3)c2N)cc1,1170
18,Cc1cc(C)cc(NC(=O)Cn2ncc3c(c2=O)N(CC2CC2)C(=O)CS3)c1,883
19,CCC(=O)Nc1ccc(S(=O)(=O)NCCc2ccc(N(C)C)cc2)c(C)c1,570

# Second part, the compound after the results:
row,RP-LC retention time [s],SMILES
1,757,Cc1nc(N2CCN(c3ccccn3)CC2)nc2c1C(=O)CC(c1ccccc1)C2 (stereo not drawn)
2,989,Cc1cccc2c(=O)n(C3CCN(S(=O)(=O)c4ccc(F)c(F)c4)CC3)cnc12
3,950,O=C(Nc1cccc([N+](=O)[O-])c1)C(=O)N1CCN(c2cccc(Cl)c2)CC1
4,1060,Cc1cc2nn(CC(=O)NCc3ccccc3)c(=O)n2c(Nc2ccc(C)c(F)c2)n1
5,654,CCS(=O)(=O)N1CCN(C(=O)c2cc(-c3ccc(OC)cc3)n[nH]2)CC1
6,692,Cc1cc(NC(=O)N2CCC(n3cnnc3C3CC3)C2)ccc1Br (stereo not drawn)
7,670,CN1C(=O)c2cccn2CC1CNS(=O)(=O)Cc1ccccc1F (stereo not drawn)
8,955,Cc1ccc(F)cc1S(=O)(=O)N1CCC2(C1)C(=O)N(C)c1ccccc12 (stereo not drawn)
9,885,O=S(=O)(c1ccc(F)cc1)N1CCC(c2noc(C3CC3)n2)C1 (stereo not drawn)
10,633,COCCN1C(=O)c2ccccc2C(C(=O)NCCCN2C(C)CCCC2C)C1c1cccs1 (stereo not drawn)
11,630,Cc1ccc(Cn2c(C)c(CNCCc3ccco3)c(C(=O)O)c2C)cc1
12,780,O=S(=O)(c1ccc(-c2nnc(C3CCC3)o2)o1)N1CCOCC1
13,889,Cc1cc(C(=O)N2CCCC2c2ccccc2Cl)on1 (stereo not drawn)
14,642,CC(=O)N1CCN(Cc2ccc([C@H](C)Nc3nccc(N4C(=O)OC[C@@H]4C(C)C)n3)cc2)CC1
15,951,Cc1cccc(OCC(=O)NC2(c3nc(C)no3)CCCCC2)c1
16,686,Cn1nnc2cc(C(=O)NCc3ccc4c(c3)OCO4)ccc21
17,727,COCC(=O)N(C1CCOCC1)C1CCN(S(=O)(=O)c2ccccc2)CC1
18,762,O=C(NCc1ccc(F)cc1F)C1CCCN(c2ncnc3c2oc2ccccc23)C1 (stereo not drawn)
19,879,CC(=O)NCc1ccc(-c2noc(-c3cc(F)ccc3Cl)n2)s1
20,778,CCN1CCCn2cc(S(=O)(=O)NCc3ccc(C)cc3)cc2C1=O
21,677,CC(C)NC(=O)c1ccc(-c2nc3cc(NS(=O)(=O)Cc4ccccc4F)ccc3n2C)cc1
22,1130,CCn1nnc(NCc2ccc(-c3ccc(Cl)cc3Cl)o2)n1
23,892,Cc1ccc(C(=O)NC2CCCCCC2)cc1NC(=O)C1=CSCCO1
24,616,COCc1ccc(C(=O)Nc2ccnc3ccc(Cl)cc23)o1
25,1110,Cc1cccc(-c2noc(CN3C(=O)COc4cc(C)ccc43)n2)c1

row,RP-LC retention time [s],SMILES
1,707,N#Cc1ccc(O[C@@H]2c3ccccc3C[C@H]2N2CCC[C@@H](N)C2)c(Cl)c1
2,817,COc1ccc(NC(=O)C2CCN(S(=O)(=O)c3ccc4c(c3)sc(=O)n4C)CC2)cc1
3,613,CCCNC(=O)N1CCCN(C)c2ccccc21
4,740,CC(C)CC(NC(=O)Cc1ccccc1F)C(=O)Nc1nc2ccccc2[nH]1 (stereo not drawn)
5,817,Cc1sc2ccn(C)c(=O)c2c1C(=O)NCc1cccc(Cl)c1
6,922,COc1ccc(-c2nnc(-c3ccc(OC)c(S(=O)(=O)N4CCCCC4)c3)o2)cc1OC
7,590,O=C(c1ccccc1C(F)(F)F)N1CCN=C1SCc1cccnc1
8,849,Cc1ccccc1Nc1c(-c2cccc(Br)c2)nc2c(C)cccn12
9,726,O=C(NCCC1CCN(C(=O)Nc2ccc(F)cc2F)CC1)c1ccoc1
10,860,Cc1ccccc1Nc1c(-c2ccc3c(c2)OCO3)nc2cnccn12
11,570,Cc1ccc(CN2CC[C@]3(CO)CN(Cc4ccccc4)C[C@@H]3C2)cc1C
12,853,Cc1noc(C)c1-c1ccc(S(=O)(=O)N2CCC3(CC2)OCCO3)cc1
13,938,CC(C)CNC(=O)C1COC2(CCCCC2)N1C(=O)c1ccccc1C(F)(F)F (stereo not drawn)
14,1140,CCCN1C(=O)COc2ccc(-c3csc(NC(=O)c4ccc(Cl)cc4)n3)cc21
15,567,COc1cc(=O)n2c(c1C(=O)Nc1ccc(N(C)C)cc1)CCCC2
16,756,COC(=O)c1ccc2c(=O)n(CCc3ccccc3)c(N3CCN(c4ccccn4)CC3)nc2c1
17,1020,CCCc1cc(C2CCCN2C(=O)Nc2cc(C)ccc2OC)no1 (stereo not drawn)
18,696,Cn1cc(CCNC(=O)Cc2ccc(Cl)cc2)c2cccnc21
19,635,O=C(Cc1cccs1)NCC1CCN(C(=O)Oc2ccccc2)CC1
20,858,Cc1c(Cl)cccc1NC(=O)C1CCN(S(=O)(=O)c2ccc3c(c2)NC(=O)C(C)O3)CC1 (stereo not drawn)
21,858,CCOC(=O)C1CCN(c2nc3ccccc3n2Cc2cc(C)ccc2C)CC1
22,773,O=C(Cn1c(=O)oc2ccccc21)N1CC(n2cc(COCc3ccccc3)nn2)C1
23,716,O=C(c1cc(O)c(O)c([N+](=O)[O-])c1)c1ccccc1F
24,989,CC(C)n1cc(S(=O)(=O)Nc2ccc(F)cc2Cl)c2cccnc21
25,662,COc1nn(C)cc1C(=O)NCc1cc(-c2cccs2)on1
